In US6583166B1, “Triazole compounds with dopamine-D3-receptor affinity” (Abbott Laboratories, priority 1999, dated 2003) one finds Ki data, which are given here for one molecule.

The experiment deals with T1, human D3-receptor (Homo sapiens, UniProt P35462).
T1 construct: host or cells: CCL 1,3 mouse fibroblasts
In words: D3 binding test (125iodosulpiride displacement). As to conditions: cloned human D3 receptor in CCL 1,3 mouse fibroblast membranes; 0.1 nM 125iodosulpiride; read-out: Ki value for the binding toward the D3 receptor. The method, then:
Cloned human D3-receptor-expressing CCL 1,3 mouse fibroblasts, obtainable from Res. Biochemicals Internat. One Strathmore Rd., Natick, Mass. 01760-2418 USA, were used for the binding studies.
The D3-expressing cells were multiplied in RPMI-1640 containing 10% fetal calf serum (GIBCO No. 041-32400 N); 100 U of penicillin/ml and 0.2% streptomycin (GIBO BRL, Gaithersburg, Md., USA). After 48 h, the cells were washed with PBS and incubated for 5 min with 0.05% trypsin-containing PBS. After that, the solution was neutralized with medium and the cells were collected by centrifuging at 300 g. In order to lyse the cells, the pellet was washed briefly with lysis buffer (5 mM Tris-HCl, pH 7.4, containing 10% glycerol) and after that incubated, at 4° C. for 30 min, at a concentration of 10^7 cells/ml of lysis buffer. […]
For the D3-receptor binding test, the membranes were suspended in incubation buffer (50 mM Tris-HCl, pH 7.4, containing 120 mM NaCl, 5 mM KC1, 2 mM CaCl2, 2 mM MgCl2, 10 μM quinolinol, 0.1% ascorbic acid and 0.1% BSA), at a concentration of approx. 10^6 cells/250 μl of test mixture, and incubated at 30° C. […] 0.1 nM ^125iodosulpiride in the presence and absence of the test substance. The nonspecific binding was determined using 10^−6 M spiperone. […]
The Ki values were determined by means of nonlinear regression analysis using the LIGAND program. […]

T1 sequence (P35462 whole entry): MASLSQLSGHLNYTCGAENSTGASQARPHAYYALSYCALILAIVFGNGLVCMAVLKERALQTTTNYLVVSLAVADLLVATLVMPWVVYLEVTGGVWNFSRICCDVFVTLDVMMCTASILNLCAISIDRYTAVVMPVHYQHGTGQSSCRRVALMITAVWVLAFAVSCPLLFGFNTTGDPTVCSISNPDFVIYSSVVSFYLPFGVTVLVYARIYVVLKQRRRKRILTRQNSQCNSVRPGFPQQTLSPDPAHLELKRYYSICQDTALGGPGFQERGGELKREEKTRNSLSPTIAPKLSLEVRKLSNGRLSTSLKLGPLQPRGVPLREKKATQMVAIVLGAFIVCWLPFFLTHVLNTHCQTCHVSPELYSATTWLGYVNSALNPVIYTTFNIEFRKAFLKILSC

In general, Ki refers to a dissociation constant, usually derived from enzyme kinetics or from competition with a known ligand. Regarding `Cn1c(SCCCN2CCC3c4c(Br)cccc4CCC32)nnc1-c1ccccc1` (mixture of isomers) [Example 1, (cis/trans) 9-Bromo-3-{3-[(4-methyl-5-phenyl-4H-1,2,4-triazol-3-yl)sulfanyl]propyl}-2,3,3a,4,5,9b-hexahydro-1H-benzo[e]indole], the Ki came out at 0.05 µM.
